Source: US20240207263A1, “SELECTIVE MODULATORS OF ATAXIA TELA[…] (ATM) KINASE AND USES THEREOF” (priority 2021, published 2024)

What follows are compounds tested against ATM (Homo sapiens (Human), UniProt Q13315) (assay: biochemical). Details: not given.
Assay type: biochemical
Description: Assay a): ATM Biochemical Potency
Data was collected by Caliper.

Chain of ATM (Q13315 whole entry, looked up): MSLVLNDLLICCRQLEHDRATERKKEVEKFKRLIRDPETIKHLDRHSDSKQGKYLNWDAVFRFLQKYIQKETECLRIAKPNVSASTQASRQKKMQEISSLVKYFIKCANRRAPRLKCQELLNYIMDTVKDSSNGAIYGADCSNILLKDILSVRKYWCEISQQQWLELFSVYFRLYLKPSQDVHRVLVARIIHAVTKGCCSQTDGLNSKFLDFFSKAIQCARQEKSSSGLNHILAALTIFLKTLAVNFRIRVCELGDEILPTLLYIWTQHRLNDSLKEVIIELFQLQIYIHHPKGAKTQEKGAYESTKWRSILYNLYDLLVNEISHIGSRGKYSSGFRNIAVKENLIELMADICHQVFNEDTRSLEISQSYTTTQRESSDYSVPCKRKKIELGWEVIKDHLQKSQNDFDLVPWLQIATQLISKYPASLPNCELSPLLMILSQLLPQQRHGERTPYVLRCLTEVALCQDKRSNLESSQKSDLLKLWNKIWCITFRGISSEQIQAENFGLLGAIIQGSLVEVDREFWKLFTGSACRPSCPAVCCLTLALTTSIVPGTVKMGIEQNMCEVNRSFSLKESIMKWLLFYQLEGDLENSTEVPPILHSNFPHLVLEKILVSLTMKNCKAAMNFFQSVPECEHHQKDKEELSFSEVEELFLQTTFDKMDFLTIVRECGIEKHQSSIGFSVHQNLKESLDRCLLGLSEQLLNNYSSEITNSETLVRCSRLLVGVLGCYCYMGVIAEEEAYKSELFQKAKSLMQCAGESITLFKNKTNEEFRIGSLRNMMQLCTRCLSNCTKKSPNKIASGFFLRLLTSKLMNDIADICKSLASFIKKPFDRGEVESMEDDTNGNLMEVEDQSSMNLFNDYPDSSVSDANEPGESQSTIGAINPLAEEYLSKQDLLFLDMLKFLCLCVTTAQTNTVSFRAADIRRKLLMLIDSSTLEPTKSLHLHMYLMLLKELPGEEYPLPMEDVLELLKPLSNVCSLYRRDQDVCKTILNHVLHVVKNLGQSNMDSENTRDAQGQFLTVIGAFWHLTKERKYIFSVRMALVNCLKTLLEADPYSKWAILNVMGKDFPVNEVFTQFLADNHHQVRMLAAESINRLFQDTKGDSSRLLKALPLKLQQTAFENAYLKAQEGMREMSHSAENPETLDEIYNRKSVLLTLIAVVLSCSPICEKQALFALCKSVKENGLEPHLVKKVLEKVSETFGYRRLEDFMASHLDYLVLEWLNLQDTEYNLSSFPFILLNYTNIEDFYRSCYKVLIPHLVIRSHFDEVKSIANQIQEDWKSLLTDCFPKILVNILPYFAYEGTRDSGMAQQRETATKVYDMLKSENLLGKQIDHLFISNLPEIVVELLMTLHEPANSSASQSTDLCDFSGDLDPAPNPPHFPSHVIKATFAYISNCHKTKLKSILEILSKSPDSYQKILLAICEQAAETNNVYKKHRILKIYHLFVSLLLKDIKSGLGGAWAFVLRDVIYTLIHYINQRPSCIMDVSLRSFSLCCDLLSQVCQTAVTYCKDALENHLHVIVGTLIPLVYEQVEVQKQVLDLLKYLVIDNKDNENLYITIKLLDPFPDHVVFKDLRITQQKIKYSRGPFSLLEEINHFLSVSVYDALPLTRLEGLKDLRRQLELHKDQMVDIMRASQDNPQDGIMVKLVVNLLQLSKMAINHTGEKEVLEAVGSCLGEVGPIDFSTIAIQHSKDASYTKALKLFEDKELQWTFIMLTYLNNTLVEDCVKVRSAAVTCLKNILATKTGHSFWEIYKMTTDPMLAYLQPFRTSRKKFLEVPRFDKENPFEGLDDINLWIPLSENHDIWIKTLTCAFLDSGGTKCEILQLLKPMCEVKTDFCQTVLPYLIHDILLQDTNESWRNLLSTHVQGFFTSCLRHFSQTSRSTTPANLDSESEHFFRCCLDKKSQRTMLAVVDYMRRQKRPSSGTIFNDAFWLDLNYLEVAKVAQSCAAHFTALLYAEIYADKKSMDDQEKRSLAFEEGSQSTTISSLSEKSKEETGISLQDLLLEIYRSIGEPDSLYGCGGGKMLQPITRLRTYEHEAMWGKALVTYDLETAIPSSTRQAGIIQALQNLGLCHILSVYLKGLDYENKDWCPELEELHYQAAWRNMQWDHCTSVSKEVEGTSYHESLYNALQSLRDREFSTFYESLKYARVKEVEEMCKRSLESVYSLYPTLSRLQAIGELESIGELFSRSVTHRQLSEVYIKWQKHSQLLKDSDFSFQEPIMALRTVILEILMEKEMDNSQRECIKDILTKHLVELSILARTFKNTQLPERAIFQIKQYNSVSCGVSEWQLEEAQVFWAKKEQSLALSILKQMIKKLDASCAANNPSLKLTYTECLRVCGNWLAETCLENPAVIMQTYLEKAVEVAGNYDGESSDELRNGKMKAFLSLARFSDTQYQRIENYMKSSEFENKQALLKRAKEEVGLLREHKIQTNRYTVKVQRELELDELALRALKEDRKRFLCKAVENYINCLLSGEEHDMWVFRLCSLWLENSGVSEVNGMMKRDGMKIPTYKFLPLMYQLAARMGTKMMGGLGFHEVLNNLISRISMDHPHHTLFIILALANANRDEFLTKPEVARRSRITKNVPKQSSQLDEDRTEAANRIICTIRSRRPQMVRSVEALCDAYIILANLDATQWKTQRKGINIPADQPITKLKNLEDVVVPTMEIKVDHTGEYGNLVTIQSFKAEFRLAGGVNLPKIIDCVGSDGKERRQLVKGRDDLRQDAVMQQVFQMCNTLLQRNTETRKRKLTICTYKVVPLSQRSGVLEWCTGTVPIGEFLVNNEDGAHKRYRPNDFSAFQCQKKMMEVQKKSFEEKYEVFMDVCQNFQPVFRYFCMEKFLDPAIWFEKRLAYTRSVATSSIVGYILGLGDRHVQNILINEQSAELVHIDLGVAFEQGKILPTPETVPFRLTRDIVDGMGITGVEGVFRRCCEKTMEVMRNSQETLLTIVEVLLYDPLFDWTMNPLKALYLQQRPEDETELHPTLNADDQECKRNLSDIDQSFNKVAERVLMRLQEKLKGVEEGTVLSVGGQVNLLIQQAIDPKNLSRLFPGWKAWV

Point of comparison: `C[C@@H](OCCN1CCC2(COC2)C1)c1ccc(-c2ccc3nnc4c(c3c2)n(C2CCOCC2)c(=O)n4C)cn1` [Example 116, (R)-8-(6-(1-(2-(2-oxa-6-azaspiro[3.4]octan-6-yl)ethoxy)ethyl)pyridin-3-yl)-3-methyl-1-(tetrahydro-2H-pyran-4-yl)-1H-imidazo[4,5-c]cinnolin-2(3H)-one], IC50 2.9 nM. Against it:
- Cn1c(=O)n(C2CCOCC2)c2c3cc(-c4ccc(COCCN5CCC6(CC6)C5)nc4)ccc3nnc21 [Example 94, 8-(6-((2-(5-azaspiro[2.4]heptan-5-yl)ethoxy)methyl)pyridin-3-yl)-3-methyl-1-(tetrahydro-2H-pyran-4-yl)-1H-imidazo[4,5-c]cinnolin-2(3H)-one] — 8.3-fold higher, 24 nM

Same assay, conditions: read-out: ATM IC50

Point of comparison: `CC(C)OC1CCN(CCO[C@H](C)c2ccc(-c3ccc4nnc5c(c4c3)n(C(C)C)c(=O)n5C)cn2)CC1` [Example 92, (R)-8-(6-(1-(2-(4-isopropoxypiperidin-1-yl)ethoxy)ethyl)pyridin-3-yl)-1-isopropyl-3-methyl-1H-imidazo[4,5-c]cinnolin-2(3H)-one], IC50 1.5 nM. Against it:
- CC(C)n1c(=O)n(C)c2nnc3ccc(-c4ccc([C@H](C)OCCN5CCC(C)(C)CC5)nc4)cc3c21 [Example 72, (S)-8-(6-(1-(2-(4,4-dimethylpiperidin-1-yl)ethoxy)ethyl)pyridin-3-yl)-1-isopropyl-3-methyl-1H-imidazo[4,5-c]cinnolin-2(3H)-one] — 33-fold higher, 50 nM
- CC(C)n1c(=O)n(C)c2nnc3ccc(-c4ccc([C@H](C)OCCN5CCC(F)(F)CC5)nc4)cc3c21 [Example 74, (S)-8-(6-(1-(2-(4,4-difluoropiperidin-1-yl)ethoxy)ethyl)pyridin-3-yl)-1-isopropyl-3-methyl-1H-imidazo[4,5-c]cinnolin-2(3H)-one] — 120-fold higher, 179 nM
- CC(C)n1c(=O)n(C)c2nnc3ccc(-c4ccc([C@@H](C)OCCN5CCC(F)(F)CC5)nc4)cc3c21 [Example 75, (R)-8-(6-(1-(2-(4,4-difluoropiperidin-1-yl)ethoxy)ethyl)pyridin-3-yl)-1-isopropyl-3-methyl-1H-imidazo[4,5-c]cinnolin-2(3H)-one] — 13-fold higher, 19 nM
- CC(C)n1c(=O)n(C)c2nnc3ccc(-c4ccc([C@@H](C)OCCN5CC[C@H](C)C5)nc4)cc3c21 [Example 78, 1-isopropyl-3-methyl-8-(6-((R)-1-(2-((S)-3-methylpyrrolidin-1-yl)ethoxy)ethyl)pyridin-3-yl)-1H-imidazo[4,5-c]cinnolin-2(3H)-one] — 4.3-fold higher, 6.4 nM
- CC(C)n1c(=O)n(C)c2nnc3ccc(-c4ccc([C@@H](C)OCCN5CC[C@@H](S(C)(=O)=O)C5)nc4)cc3c21 [Example 79, 1-isopropyl-3-methyl-8-(6-((R)-1-(2-((R)-3-(methylsulfonyl)pyrrolidin-1-yl)ethoxy)ethyl)pyridin-3-yl)-1H-imidazo[4,5-c]cinnolin-2(3H)-one] — 25-fold higher, 37 nM
- CC(C)n1c(=O)n(C)c2nnc3ccc(-c4ccc([C@@H](C)OCCN5CC6(COC6)C5)nc4)cc3c21 [Example 81, (R)-8-(6-(1-(2-(2-oxa-6-azaspiro[3.3]heptan-6-yl)ethoxy)ethyl)pyridin-3-yl)-1-isopropyl-3-methyl-1H-imidazo[4,5-c]cinnolin-2(3H)-one] — 2-fold higher, 3 nM
- CC(C)n1c(=O)n(C)c2nnc3ccc(-c4ccc([C@@H](C)OCCN5CCC6(CCO6)CC5)nc4)cc3c21 [Example 82, (R)-8-(6-(1-(2-(1-oxa-7-azaspiro[3.5]nonan-7-yl)ethoxy)ethyl)pyridin-3-yl)-1-isopropyl-3-methyl-1H-imidazo[4,5-c]cinnolin-2(3H)-one] — 2.3-fold higher, 3.4 nM
- CC(C)n1c(=O)n(C)c2nnc3ccc(-c4ccc([C@@H](C)OCCN5CCC(C6COC6)CC5)nc4)cc3c21 [Example 83, (R)-1-isopropyl-3-methyl-8-(6-(1-(2-(4-(oxetan-3-yl)piperidin-1-yl)ethoxy)ethyl)pyridin-3-yl)-1H-imidazo[4,5-c]cinnolin-2(3H)-one] — 1.6-fold higher, 2.4 nM
- CC(C)n1c(=O)n(C)c2nnc3ccc(-c4ccc([C@@H](C)OCCN5CCC(C(F)(F)F)CC5)nc4)cc3c21 [Example 84, (R)-1-isopropyl-3-methyl-8-(6-(1-(2-(4-(trifluoromethyl)piperidin-1-yl)ethoxy)ethyl)pyridin-3-yl)-1H-imidazo[4,5-c]cinnolin-2(3H)-one] — within 1.5-fold, 1.9 nM
- COC[C@@H]1CCN(CCO[C@H](C)c2ccc(-c3ccc4nnc5c(c4c3)n(C(C)C)c(=O)n5C)cn2)C1 [Example 85, 1-isopropyl-8-(6-((R)-1-(2-((R)-3-(methoxymethyl)pyrrolidin-1-yl)ethoxy)ethyl)pyridin-3-yl)-3-methyl-1H-imidazo[4,5-c]cinnolin-2(3H)-one] — 2.3-fold higher, 3.4 nM
- CC(C)n1c(=O)n(C)c2nnc3ccc(-c4ccc([C@@H](C)OCCN5CCCCC5)nc4)cc3c21 [Example 87, (R)-1-isopropyl-3-methyl-8-(6-(1-(2-(piperidin-1-yl)ethoxy)ethyl)pyridin-3-yl)-1H-imidazo[4,5-c]cinnolin-2(3H)-one] — 5.5-fold higher, 8.2 nM
- CC(C)n1c(=O)n(C)c2nnc3ccc(-c4ccc([C@@H](C)OCCN5CCC6(CCC6)C5)nc4)cc3c21 [Example 89, (R)-8-(6-(1-(2-(6-azaspiro[3.4]octan-6-yl)ethoxy)ethyl)pyridin-3-yl)-1-isopropyl-3-methyl-1H-imidazo[4,5-c]cinnolin-2(3H)-one] — within 1.5-fold, 1.6 nM
- CC(C)n1c(=O)n(C)c2nnc3ccc(-c4ccc([C@@H](C)OCCN5CCC(C)(C#N)C5)nc4)cc3c21 (stereo partly drawn) [Example 90, 1-(2-((R)-1-(5-(1-isopropyl-3-methyl-2-oxo-2,3-dihydro-1H-imidazo[4,5-c]cinnolin-8-yl)pyridin-2-yl)ethoxy)ethyl)-3-methylpyrrolidine-3-carbonitrile] — 7.3-fold higher, 11 nM
- CC(C)n1c(=O)n(C)c2nnc3ccc(-c4ccc([C@@H](C)OCCN5CCC(C#N)CC5)nc4)cc3c21 [Example 91, (R)-1-(2-(1-(5-(1-isopropyl-3-methyl-2-oxo-2,3-dihydro-1H-imidazo[4,5-c]cinnolin-8-yl)pyridin-2-yl)ethoxy)ethyl)piperidine-4-carbonitrile] — 5.7-fold higher, 8.5 nM
- CC(C)O[C@@H]1CCN(CCO[C@H](C)c2ccc(-c3ccc4nnc5c(c4c3)n(C(C)C)c(=O)n5C)cn2)C1 [Example 93, 8-(6-((R)-1-(2-((R)-3-isopropoxypyrrolidin-1-yl)ethoxy)ethyl)pyridin-3-yl)-1-isopropyl-3-methyl-1H-imidazo[4,5-c]cinnolin-2(3H)-one] — 3.3-fold higher, 4.9 nM
- Cn1c(=O)n(C2CCOCC2)c2c3cc(-c4ccc(COCCN5CCC(F)CC5)nc4)ccc3nnc21 [Example 95, 8-(6-((2-(4-fluoropiperidin-1-yl)ethoxy)methyl)pyridin-3-yl)-3-methyl-1-(tetrahydro-2H-pyran-4-yl)-1H-imidazo[4,5-c]cinnolin-2(3H)-one] — 31-fold higher, 47 nM
- Cn1c(=O)n(C2CCOCC2)c2c3cc(-c4ccc(COCCN5CCC(C)(C)CC5)nc4)ccc3nnc21 [Example 96, 8-(6-((2-(4,4-dimethylpiperidin-1-yl)ethoxy)methyl)pyridin-3-yl)-3-methyl-1-(tetrahydro-2H-pyran-4-yl)-1H-imidazo[4,5-c]cinnolin-2(3H)-one] — 11-fold higher, 17 nM
- Cn1c(=O)n(C2CCOCC2)c2c3cc(-c4ccc(COCCN5CC6CC6C5)nc4)ccc3nnc21 (centres unmarked) [Example 98, 8-(6-((2-(3-azabicyclo[3.1.0]hexan-3-yl)ethoxy)methyl)pyridin-3-yl)-3-methyl-1-(tetrahydro-2H-pyran-4-yl)-1H-imidazo[4,5-c]cinnolin-2(3H)-one] — 41-fold higher, 62 nM
- Cn1c(=O)n(C2CCOCC2)c2c3cc(-c4ccc(COCCN5CC[C@@H](OC(F)F)C5)nc4)ccc3nnc21 [Example 99, (R)-8-(6-((2-(3-(difluoromethoxy)pyrrolidin-1-yl)ethoxy)methyl)pyridin-3-yl)-3-methyl-1-(tetrahydro-2H-pyran-4-yl)-1H-imidazo[4,5-c]cinnolin-2(3H)-one] — 27-fold higher, 40 nM
- Cn1c(=O)n(C2CCOCC2)c2c3cc(-c4ccc(COCCN5CC[C@H](OC(F)F)C5)nc4)ccc3nnc21 [Example 100, (S)-8-(6-((2-(3-(difluoromethoxy)pyrrolidin-1-yl)ethoxy)methyl)pyridin-3-yl)-3-methyl-1-(tetrahydro-2H-pyran-4-yl)-1H-imidazo[4,5-c]cinnolin-2(3H)-one] — 11-fold higher, 16 nM
- Cn1c(=O)n(C2CCOCC2)c2c3cc(-c4ccc(COCCN5CCC(OC(F)(F)F)CC5)nc4)ccc3nnc21 [Example 101, 3-methyl-1-(tetrahydro-2H-pyran-4-yl)-8-(6-((2-(4-(trifluoromethoxy)piperidin-1-yl)ethoxy)methyl)pyridin-3-yl)-1H-imidazo[4,5-c]cinnolin-2(3H)-one] — 2.5-fold higher, 3.7 nM
- C[C@@H](OCCN1CC2CC2C1)c1ccc(-c2ccc3nnc4c(c3c2)n(C2CCOCC2)c(=O)n4C)cn1 (stereo partly drawn) [Example 104, 8-(6-((1R)-1-(2-(3-azabicyclo[3.1.0]hexan-3-yl)ethoxy)ethyl)pyridin-3-yl)-3-methyl-1-(tetrahydro-2H-pyran-4-yl)-1H-imidazo[4,5-c]cinnolin-2(3H)-one] — 13-fold higher, 19 nM
- C[C@@H](OCCN1CCC(F)CC1)c1ccc(-c2ccc3nnc4c(c3c2)n(C2CCOCC2)c(=O)n4C)cn1 [Example 108] — 2.5-fold higher, 3.7 nM
- C[C@@H](OCCN1CCC(OC(F)(F)F)CC1)c1ccc(-c2ccc3nnc4c(c3c2)n(C2CCOCC2)c(=O)n4C)cn1 [Example 109, (R)-3-methyl-1-(tetrahydro-2H-pyran-4-yl)-8-(6-(1-(2-(4-(trifluoromethoxy)piperidin-1-yl)ethoxy)ethyl)pyridin-3-yl)-1H-imidazo[4,5-c]cinnolin-2(3H)-one] — within 1.5-fold, 2.1 nM
- C[C@@H](OCCN1CCC(C)(C)C1)c1ccc(-c2ccc3nnc4c(c3c2)n(C2CCOCC2)c(=O)n4C)cn1 [Example 111, (R)-8-(6-(1-(2-(3,3-dimethylpyrrolidin-1-yl)ethoxy)ethyl)pyridin-3-yl)-3-methyl-1-(tetrahydro-2H-pyran-4-yl)-1H-imidazo[4,5-c]cinnolin-2(3H)-one] — 8-fold higher, 12 nM
- CC(C)O[C@@H]1CCN(CCO[C@H](C)c2ccc(-c3ccc4nnc5c(c4c3)n(C3CCOCC3)c(=O)n5C)cn2)C1 [Example 113, 8-(6-((R)-1-(2-((R)-3-isopropoxypyrrolidin-1-yl)ethoxy)ethyl)pyridin-3-yl)-3-methyl-1-(tetrahydro-2H-pyran-4-yl)-1H-imidazo[4,5-c]cinnolin-2(3H)-one] — 5-fold higher, 7.5 nM
